In brackets after ≈: the same amount, converted by molar mass.
What was measured:
[1] = Solubility of olaparib at room temperature; assay type: physicochemical; details: for solubility: organic solvent or mixture
Method: (§1) “Solvent” refers to a liquid substance capable of dissolving olaparib at a concentration of at least about 2.5% (w/w) at 60° C.

[2] = Solubility of olaparib at 60° C. in solvents and anti-solvents; assay type: physicochemical
Method: as §1
In the Tables above, examples of good solvents include, but are not limited to, an alcohol (e.g., methanol or ethanol), acetic acid, dimethylacetamide, dimethyl sulfoxide and pyridine. Examples of poor solvents (anti-solvents) include, but are not limited to, water, toluene, acetonitrile, cyclohexane, isopropanol, tetrahydrofuran, n-butanol, xylenes, ethyl acetate and n-heptane.

In the case of O=C(c1cc(Cc2n[nH]c(=O)c3ccccc23)ccc1F)N1CCN(C(=O)C2CC2)CC1 [olaparib, 4-[(3-[(4-cyclopropylcarbonyl)piperazin-4-yl]carbonyl)-4-fluorophenyl]methyl(2H)phthalazin-1-one], the Solubility of olaparib ([1]; AcOH) is reported as >20.0 wt %, the “Solubility of olaparib (Summary, solvents for olaparib)” value ([1]; AcOH, DMSO) is reported as >15% (w/w) and the Solubility of olaparib ([1]; DMSO) is reported as >19.1 wt %. The solubility ([1]; acetic acid (AcOH), AcOH) was > 210 mg/mL, the solubility ([1]; dimethyl sulfoxide (DMSO), DMSO) was > 210 mg/mL and the Solubility of olaparib ([2]; ACN) was <2.1 wt %. The Solubility of olaparib ([2]; DMAc) was >23.5 wt %, the “Solubility of olaparib (Summary, solvents for olaparib)” value ([2]; DMAc, Pyridine) was >15% (w/w) and the Solubility of olaparib ([2]; EA) was <1.8 wt %. The Solubility of olaparib ([2]; EtOH) was 2.6-2.9 wt %, the “Solubility of olaparib (Summary, solvents for olaparib)” value ([2]; EtOH, MeOH) was 2.5-10% (w/w) and the Solubility of olaparib ([2]; IPA) was <2.1 wt %. For the same compound, the Solubility of olaparib ([2]; MeOH) was 6.7-8.8 wt %, the Solubility of olaparib ([2]; Pyridine) was >21.5 wt % and the Solubility of olaparib ([2]; THF) was <1.9 wt %. The Solubility of olaparib ([2]; Toluene) was <1.9 wt %, the “Solubility of olaparib (Summary, anti-solvents for olaparib)” value ([2]; Toluene, ACN, Cyclohexane, IPA, THF, EA, Xylenes, n-heptane, Water, n-butanol) was <2.5% (w/w) and the Solubility of olaparib ([2]; Xylenes) was <1.9 wt %. The solubility ([2]; acetonitrile (ACN), organic solvent or mixture, ACN) was < 16.2 mg/mL, the Solubility of olaparib ([2]; cyclohexane) was <2.1 wt % and the solubility ([2]; dimethylacetamide (DMAc), organic solvent or mixture, DMAc) was > 220 mg/mL. For the same compound, the solubility ([2]; ethanol (EtOH), organic solvent or mixture, EtOH) was 21 to 23 mg/mL (≈ 48.3 to 52.9 mM), the solubility ([2]; ethyl acetate (EA), organic solvent or mixture, EA) was < 16.2 mg/mL and the solubility ([2]; isopropanol (IPA), organic solvent or mixture, IPA) was < 16.2 mg/mL. For the same compound, the solubility ([2]; methanol (MeOH), organic solvent or mixture, MeOH) was 53 to 70 mg/mL (≈ 122 to 161 mM), the Solubility of olaparib ([2]; n-butanol) was <2.1 wt % and the Solubility of olaparib ([2]; n-heptane) was <2.4 wt %. The solubility ([2]; organic solvent or mixture, Pyridine) was > 210 mg/mL, the solubility ([2]; organic solvent or mixture, Toluene) was < 16.9 mg/mL and the solubility ([2]; organic solvent or mixture, Xylenes) was < 16.2 mg/mL. For the same compound, the solubility ([2]; organic solvent or mixture, cyclohexane) was < 16.2 mg/mL, the solubility ([2]; organic solvent or mixture, n-butanol) was < 16.9 mg/mL and the solubility ([2]; organic solvent or mixture, n-heptane) was < 16.2 mg/mL. For the same compound, the solubility ([2]; tetrahydrofuran (THF), organic solvent or mixture, THF) was < 16.9 mg/mL, the Solubility of olaparib ([2]; water) was <1.6 wt % and the solubility ([2]; water) was < 16.2 mg/mL.

Source: patent US10703728B1, “Crystalline form of olaparib and a process for preparing the same” (SCINOPHARM TAIWAN, LTD., priority 2019, dated 2020)
